The results in this text go back to patent US20090299044A1 (priority 2006, published 2009).

Bridge positions count the residues as written; N and C are the ends. Square brackets hold non-standard residues; d marks the D form. Peptide text beside a SMILES is read from it. 1Nal = N[C@@H](Cc1cccc2ccccc12)C(=O)O

Broadly, the IC50 is the concentration at which inhibition is half-maximal. Low readings indicate greater potency in that assay, high ones weaker potency in that assay.

The target in one test is T1, human Kv1.3 (CHO) (Homo sapiens, UniProt P22001).
T1 construct: expressed in transfected cells; host or cells: CHO
As to the kind of experiment: cell-based.

In the next test the target is T2, human Kv1.1 (HEK293) (Homo sapiens, UniProt Q09470).
T2 construct: expressed in transfected cells; host or cells: HEK293
As to the kind of experiment: cell-based.

T2 sequence (Q09470 whole entry): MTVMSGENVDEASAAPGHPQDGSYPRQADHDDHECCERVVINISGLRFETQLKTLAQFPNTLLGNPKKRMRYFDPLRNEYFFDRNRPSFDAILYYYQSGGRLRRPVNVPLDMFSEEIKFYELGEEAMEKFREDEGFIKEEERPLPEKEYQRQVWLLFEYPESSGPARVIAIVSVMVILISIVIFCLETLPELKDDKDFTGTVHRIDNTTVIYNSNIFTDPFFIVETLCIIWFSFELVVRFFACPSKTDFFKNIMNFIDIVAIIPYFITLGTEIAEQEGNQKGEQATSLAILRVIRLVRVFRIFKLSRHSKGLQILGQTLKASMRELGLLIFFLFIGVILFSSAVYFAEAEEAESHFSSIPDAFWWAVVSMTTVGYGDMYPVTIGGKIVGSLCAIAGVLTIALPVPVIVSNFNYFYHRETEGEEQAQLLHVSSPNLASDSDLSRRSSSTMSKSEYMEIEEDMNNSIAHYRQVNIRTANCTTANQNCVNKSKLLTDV
T1 sequence (P22001 whole entry): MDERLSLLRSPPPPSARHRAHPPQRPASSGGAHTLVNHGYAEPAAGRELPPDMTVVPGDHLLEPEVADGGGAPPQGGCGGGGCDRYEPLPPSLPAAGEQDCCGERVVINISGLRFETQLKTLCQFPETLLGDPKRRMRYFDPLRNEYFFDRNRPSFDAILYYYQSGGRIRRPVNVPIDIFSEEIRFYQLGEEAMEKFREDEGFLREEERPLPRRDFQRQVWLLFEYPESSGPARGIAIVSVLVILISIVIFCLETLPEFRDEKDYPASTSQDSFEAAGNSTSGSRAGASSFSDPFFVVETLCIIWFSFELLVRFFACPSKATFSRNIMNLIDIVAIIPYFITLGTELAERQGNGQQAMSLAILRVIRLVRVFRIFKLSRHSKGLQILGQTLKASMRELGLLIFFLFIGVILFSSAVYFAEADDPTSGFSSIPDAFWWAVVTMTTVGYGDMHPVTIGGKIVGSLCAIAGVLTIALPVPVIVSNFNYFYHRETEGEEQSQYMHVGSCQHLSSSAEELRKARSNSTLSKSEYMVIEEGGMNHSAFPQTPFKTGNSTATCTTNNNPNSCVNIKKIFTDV

As to `CC[C@H](C)[C@@H]1NC(=O)[C@H](CCCCN)NC(=O)[C@@H](NC(=O)[C@H](Cc2cccc3ccccc23)NC(=O)[C@@H](NC(=O)[C@H](CC(N)=O)NC(=O)[C@@H](NC(=O)[C@@H](NC(=O)[C@@H](NC(=O)CN)C(C)C)[C@@H](C)CC)[C@@H](C)CC)C(C)C)CSSC[C@@H]2NC(=O)[C@H](CCCCN)NC(=O)CNC(=O)[C@H](Cc3ccccc3)NC(=O)[C@H](CCCNC(=N)N)NC(=O)[C@H](CCSC)NC(=O)CNC(=O)[C@H](C)NC(=O)[C@H](CCCCN)NC(=O)[C@H](CCCCN)NC(=O)[C@@H]3CSSC[C@@H](C(=O)N[C@H](C(=O)N4CCC[C@H]4C(=O)N[C@@H](CCCCN)C(=O)O)[C@@H](C)O)NC(=O)[C@H](Cc4c[nH]cn4)NC(=O)[C@H](CSSC[C@H](NC(=O)[C@H](CCC(N)=O)NC(=O)[C@H](CCCNC(=N)N)NC(=O)[C@H](CO)NC1=O)C(=O)N[C@@H](CC(C)C)C(=O)N[C@@H](CCC(=O)O)C(=O)N1CCC[C@H]1C(=O)N3)NC(=O)[C@H](CCCCN)NC(=O)CNC(=O)[C@H](CC(N)=O)NC(=O)[C@H](CCSC)NC2=O` [K7Nal] (H-GVIINV[1Nal]CKISRQCLEPCKKAGMRFGKCMNGKCHCTPK-OH; disulfide 8-28, 14-33, 18-35), the values for the IC50 on human Kv1.3 (CHO) and against human Kv1.1 (HEK293) were 0.0236 nM and less than 0.00152 nM, respectively.

On to `CC[C@H](C)[C@@H]1NC(=O)[C@H](CCCCN)NC(=O)[C@@H](NC(=O)[C@H](CCCNC(=N)N)NC(=O)[C@@H](NC(=O)[C@H](CC(N)=O)NC(=O)[C@@H](NC(=O)[C@@H](NC(=O)[C@@H](NC(=O)CN)C(C)C)[C@@H](C)CC)[C@@H](C)CC)C(C)C)CSSC[C@@H]2NC(=O)[C@H](CCCCN)NC(=O)CNC(=O)[C@H](Cc3ccccc3)NC(=O)[C@H](CCCNC(=N)N)NC(=O)[C@H](CCSC)NC(=O)CNC(=O)[C@H](C)NC(=O)[C@H](CCCCN)NC(=O)[C@H](CCCCN)NC(=O)[C@@H]3CSSC[C@@H](C(=O)N[C@H](C(=O)N4CCC[C@H]4C(=O)N[C@@H](CCCCN)C(=O)O)[C@@H](C)O)NC(=O)[C@H](Cc4c[nH]cn4)NC(=O)[C@H](CSSC[C@H](NC(=O)[C@H](CCC(N)=O)NC(=O)[C@H](CCCNC(=N)N)NC(=O)[C@H](CO)NC1=O)C(=O)N[C@@H](CC(C)C)C(=O)N[C@@H](CCC(=O)O)C(=O)N1CCC[C@H]1C(=O)N3)NC(=O)[C@H](CCCCN)NC(=O)CNC(=O)[C@H](CC(N)=O)NC(=O)[C@H](CCSC)NC2=O` [K7R] (H-GVIINVRCKISRQCLEPCKKAGMRFGKCMNGKCHCTPK-OH; disulfide 8-28, 14-33, 18-35), for which the 50% inhibitory concentration (IC50) on human Kv1.3 (CHO) is 0.0132 nM; against human Kv1.1 (HEK293) it was less than 0.00152 nM.

In the case of `CC[C@H](C)[C@@H]1NC(=O)[C@H](C)NC(=O)[C@@H](NC(=O)[C@H](CCCCN)NC(=O)[C@@H](NC(=O)[C@H](CC(N)=O)NC(=O)[C@@H](NC(=O)[C@@H](NC(=O)[C@@H](NC(=O)CN)C(C)C)[C@@H](C)CC)[C@@H](C)CC)C(C)C)CSSC[C@@H]2NC(=O)[C@H](CCCCN)NC(=O)CNC(=O)[C@H](Cc3ccccc3)NC(=O)[C@H](CCCNC(=N)N)NC(=O)[C@H](CCSC)NC(=O)CNC(=O)[C@H](C)NC(=O)[C@H](CCCCN)NC(=O)[C@H](CCCCN)NC(=O)[C@@H]3CSSC[C@@H](C(=O)N[C@H](C(=O)N4CCC[C@H]4C(=O)N[C@@H](CCCCN)C(=O)O)[C@@H](C)O)NC(=O)[C@H](Cc4c[nH]cn4)NC(=O)[C@H](CSSC[C@H](NC(=O)[C@H](CCC(N)=O)NC(=O)[C@H](CCCNC(=N)N)NC(=O)[C@H](CO)NC1=O)C(=O)N[C@@H](CC(C)C)C(=O)N[C@@H](CCC(=O)O)C(=O)N1CCC[C@H]1C(=O)N3)NC(=O)[C@H](CCCCN)NC(=O)CNC(=O)[C@H](CC(N)=O)NC(=O)[C@H](CCSC)NC2=O` [K9A] (H-GVIINVKCAISRQCLEPCKKAGMRFGKCMNGKCHCTPK-OH; disulfide 8-28, 14-33, 18-35), the IC50 at human Kv1.3 (CHO) was 0.166 nM; at human Kv1.1 (HEK293), 0.0406 nM.

As to `CC[C@H](C)[C@@H]1NC(=O)[C@H](CCC(=O)O)NC(=O)[C@@H](NC(=O)[C@H](CCCCN)NC(=O)[C@@H](NC(=O)[C@H](CC(N)=O)NC(=O)[C@@H](NC(=O)[C@@H](NC(=O)[C@@H](NC(=O)CN)C(C)C)[C@@H](C)CC)[C@@H](C)CC)C(C)C)CSSC[C@@H]2NC(=O)[C@H](CCCCN)NC(=O)CNC(=O)[C@H](Cc3ccccc3)NC(=O)[C@H](CCCNC(=N)N)NC(=O)[C@H](CCSC)NC(=O)CNC(=O)[C@H](C)NC(=O)[C@H](CCCCN)NC(=O)[C@H](CCCCN)NC(=O)[C@@H]3CSSC[C@@H](C(=O)N[C@H](C(=O)N4CCC[C@H]4C(=O)N[C@@H](CCCCN)C(=O)O)[C@@H](C)O)NC(=O)[C@H](Cc4c[nH]cn4)NC(=O)[C@H](CSSC[C@H](NC(=O)[C@H](CCC(N)=O)NC(=O)[C@H](CCCNC(=N)N)NC(=O)[C@H](CO)NC1=O)C(=O)N[C@@H](CC(C)C)C(=O)N[C@@H](CCC(=O)O)C(=O)N1CCC[C@H]1C(=O)N3)NC(=O)[C@H](CCCCN)NC(=O)CNC(=O)[C@H](CC(N)=O)NC(=O)[C@H](CCSC)NC2=O` [K9E] (H-GVIINVKCEISRQCLEPCKKAGMRFGKCMNGKCHCTPK-OH; disulfide 8-28, 14-33, 18-35), the 50% inhibitory concentration (IC50) at human Kv1.3 (CHO) amounted to 0.0318 nM; at human Kv1.1 (HEK293), 0.111 nM.

With `CC[C@H](C)[C@@H]1NC(=O)[C@H](Cc2cccc3ccccc23)NC(=O)[C@@H](NC(=O)[C@H](CCCCN)NC(=O)[C@@H](NC(=O)[C@H](CC(N)=O)NC(=O)[C@@H](NC(=O)[C@@H](NC(=O)[C@@H](NC(=O)CN)C(C)C)[C@@H](C)CC)[C@@H](C)CC)C(C)C)CSSC[C@@H]2NC(=O)[C@H](CCCCN)NC(=O)CNC(=O)[C@H](Cc3ccccc3)NC(=O)[C@H](CCCNC(=N)N)NC(=O)[C@H](CCSC)NC(=O)CNC(=O)[C@H](C)NC(=O)[C@H](CCCCN)NC(=O)[C@H](CCCCN)NC(=O)[C@@H]3CSSC[C@@H](C(=O)N[C@H](C(=O)N4CCC[C@H]4C(=O)N[C@@H](CCCCN)C(=O)O)[C@@H](C)O)NC(=O)[C@H](Cc4c[nH]cn4)NC(=O)[C@H](CSSC[C@H](NC(=O)[C@H](CCC(N)=O)NC(=O)[C@H](CCCNC(=N)N)NC(=O)[C@H](CO)NC1=O)C(=O)N[C@@H](CC(C)C)C(=O)N[C@@H](CCC(=O)O)C(=O)N1CCC[C@H]1C(=O)N3)NC(=O)[C@H](CCCCN)NC(=O)CNC(=O)[C@H](CC(N)=O)NC(=O)[C@H](CCSC)NC2=O` [K9Nal] (H-GVIINVKC[1Nal]ISRQCLEPCKKAGMRFGKCMNGKCHCTPK-OH; disulfide 8-28, 14-33, 18-35), the 50% inhibitory concentration (IC50) was determined as 0.0658 nM against human Kv1.3 (CHO) and 0.00292 nM against human Kv1.1 (HEK293).

For the molecule `CC[C@H](C)[C@@H]1NC(=O)[C@H](CCCNC(=N)N)NC(=O)[C@@H](NC(=O)[C@H](CCCCN)NC(=O)[C@@H](NC(=O)[C@H](CC(N)=O)NC(=O)[C@@H](NC(=O)[C@@H](NC(=O)[C@@H](NC(=O)CN)C(C)C)[C@@H](C)CC)[C@@H](C)CC)C(C)C)CSSC[C@@H]2NC(=O)[C@H](CCCCN)NC(=O)CNC(=O)[C@H](Cc3ccccc3)NC(=O)[C@H](CCCNC(=N)N)NC(=O)[C@H](CCSC)NC(=O)CNC(=O)[C@H](C)NC(=O)[C@H](CCCCN)NC(=O)[C@H](CCCCN)NC(=O)[C@@H]3CSSC[C@@H](C(=O)N[C@H](C(=O)N4CCC[C@H]4C(=O)N[C@@H](CCCCN)C(=O)O)[C@@H](C)O)NC(=O)[C@H](Cc4c[nH]cn4)NC(=O)[C@H](CSSC[C@H](NC(=O)[C@H](CCC(N)=O)NC(=O)[C@H](CCCNC(=N)N)NC(=O)[C@H](CO)NC1=O)C(=O)N[C@@H](CC(C)C)C(=O)N[C@@H](CCC(=O)O)C(=O)N1CCC[C@H]1C(=O)N3)NC(=O)[C@H](CCCCN)NC(=O)CNC(=O)[C@H](CC(N)=O)NC(=O)[C@H](CCSC)NC2=O` [K9R] (H-GVIINVKCRISRQCLEPCKKAGMRFGKCMNGKCHCTPK-OH; disulfide 8-28, 14-33, 18-35), the IC50 at human Kv1.3 (CHO) came out at 0.012 nM; on human Kv1.1 (HEK293), 0.00201 nM.

As for `CC[C@H](C)[C@@H]1NC(=O)[C@H](CCCCN)NC(=O)[C@@H](NC(=O)[C@H](CCCCN)NC(=O)[C@@H](NC(=O)[C@H](CC(N)=O)NC(=O)[C@@H](NC(=O)[C@@H](NC(=O)[C@@H](NC(=O)CN)C(C)C)[C@@H](C)CC)[C@@H](C)CC)C(C)C)CSSC[C@@H]2NC(=O)[C@H](CCCCN)NC(=O)CNC(=O)[C@H](Cc3ccccc3)NC(=O)[C@H](CCCNC(=N)N)NC(=O)[C@H](CCSC)NC(=O)CNC(=O)[C@H](C)NC(=O)[C@H](CCCCN)NC(=O)[C@H](C)NC(=O)[C@@H]3CSSC[C@@H](C(=O)N[C@H](C(=O)N4CCC[C@H]4C(=O)N[C@@H](CCCCN)C(=O)O)[C@@H](C)O)NC(=O)[C@H](Cc4c[nH]cn4)NC(=O)[C@H](CSSC[C@H](NC(=O)[C@H](CCC(N)=O)NC(=O)[C@H](CCCNC(=N)N)NC(=O)[C@H](CO)NC1=O)C(=O)N[C@@H](CC(C)C)C(=O)N[C@@H](CCC(=O)O)C(=O)N1CCC[C@H]1C(=O)N3)NC(=O)[C@H](CCCCN)NC(=O)CNC(=O)[C@H](CC(N)=O)NC(=O)[C@H](CCSC)NC2=O` [K19A] (H-GVIINVKCKISRQCLEPCAKAGMRFGKCMNGKCHCTPK-OH; disulfide 8-28, 14-33, 18-35), the IC50 was 0.21 nM on human Kv1.3 (CHO) and 0.0168 nM on human Kv1.1 (HEK293).

`CC[C@H](C)[C@@H]1NC(=O)[C@H](CCCCN)NC(=O)[C@@H](NC(=O)[C@H](CCCCN)NC(=O)[C@@H](NC(=O)[C@H](CC(N)=O)NC(=O)[C@@H](NC(=O)[C@@H](NC(=O)[C@@H](NC(=O)CN)C(C)C)[C@@H](C)CC)[C@@H](C)CC)C(C)C)CSSC[C@@H]2NC(=O)[C@H](CCCCN)NC(=O)CNC(=O)[C@H](Cc3ccccc3)NC(=O)[C@H](CCCNC(=N)N)NC(=O)[C@H](CCSC)NC(=O)CNC(=O)[C@H](C)NC(=O)[C@H](CCCCN)NC(=O)[C@H](CCC(=O)O)NC(=O)[C@@H]3CSSC[C@@H](C(=O)N[C@H](C(=O)N4CCC[C@H]4C(=O)N[C@@H](CCCCN)C(=O)O)[C@@H](C)O)NC(=O)[C@H](Cc4c[nH]cn4)NC(=O)[C@H](CSSC[C@H](NC(=O)[C@H](CCC(N)=O)NC(=O)[C@H](CCCNC(=N)N)NC(=O)[C@H](CO)NC1=O)C(=O)N[C@@H](CC(C)C)C(=O)N[C@@H](CCC(=O)O)C(=O)N1CCC[C@H]1C(=O)N3)NC(=O)[C@H](CCCCN)NC(=O)CNC(=O)[C@H](CC(N)=O)NC(=O)[C@H](CCSC)NC2=O` [K19E] (H-GVIINVKCKISRQCLEPCEKAGMRFGKCMNGKCHCTPK-OH; disulfide 8-28, 14-33, 18-35): the IC50 against human Kv1.3 (CHO) was 0.0235 nM; on human Kv1.1 (HEK293) it was 0.0137 nM.
